ChEMBL document CHEMBL5154694, “Fascaplysin derivatives binding to DNA via unique cationic five-ring coplanar backbone showed potent antimicrobial/antibiofilm activity against MRSA in vitro and in vivo” (Eur J Med Chem, 2022)
The source made the active and inactive calls. The calls are words filed in the database; no cut-off is given here.

Columns and labels:
Staphylococcus aureus [1] = assay: Induction of membrane morphological changes in methicillin-resistant Staphylococcus aureus ATCC 4330 assessed as permeable cells at 1 to 4X MIC measured after 30 to 120 mins by propidium iodide staining based flow cytometry assay; assay type: functional; conditions: time 30-120 min
Staphylococcus aureus [2] = assay: Induction of membrane morphological changes in methicillin-resistant Staphylococcus aureus ATCC 4330 assessed as visible cell surface wrinkles at 4X MIC after 2 hrs by scanning electron microscopy; assay type: functional
Staphylococcus aureus [3] = assay: Induction of membrane morphological changes in methicillin-resistant Staphylococcus aureus ATCC 4330 assessed as visible cell membrane disruption at 4X MIC after 2 hrs by transmission electron microscopy; assay type: functional
Staphylococcus aureus [4] = assay: Induction of membrane morphological changes in methicillin-resistant Staphylococcus aureus ATCC 4330 assessed as visible cell wall fragments at 4X MIC after 2 hrs by transmission electron microscopy; assay type: functional
Staphylococcus aureus [5] = assay: Antimicrobial activity against methicillin-resistant Staphylococcus aureus ATCC 4330 infected in female ICR peritonitis mouse model assessed as reduction in bacteria in blood at 10 mg/kg, ip; assay type: functional
Staphylococcus aureus [6] = assay: Bactericidal activity against methicillin-resistant Staphylococcus aureus ATCC 4330 assessed as reduction in bacterial counts at 4X MIC by time-kill kinetic assay; assay type: functional, organism-based
DNA [7] = assay: Binding affinity to methicillin-resistant Staphylococcus aureus ATCC 4330 DNA assessed as induction of confirmational changes at 50 ug/ml measured by Circular dichroism assay; assay type: nucleic-acid assay; conditions: dose 50.0 µg/ml
Staphylococcus aureus [8] = assay: Bactericidal activity against methicillin-resistant Staphylococcus aureus ATCC 4330 assessed as inhibition of bacterial regrowth at 2X MIC after 24 hrs by time-kill kinetic assay; assay type: functional, organism-based
DNA [9] = assay: Inhibition of methicillin-resistant Staphylococcus aureus ATCC 4330 genomic DNA migration at 3.125 to 6.25 ug/ml measured by electrophoretic mobility assay; assay type: nucleic-acid assay; conditions: dose 3.125-6.25 µg/ml
Staphylococcus aureus [10] = assay: Induction of membrane morphological changes in methicillin-resistant Staphylococcus aureus ATCC 4330 assessed as visible cell filaments at 4X MIC after 2 hrs by scanning electron microscopy; assay type: functional
Staphylococcus aureus [11] = assay: Induction of membrane morphological changes in methicillin-resistant Staphylococcus aureus ATCC 4330 assessed as ghost cells at 4X MIC after 2 hrs by transmission electron microscopy; assay type: functional
Staphylococcus aureus [12] = assay: Antibacterial activity against methicillin-resistant Staphylococcus aureus ATCC 4330 after 16 to 18 hrs by microbroth dilution method; assay type: functional; conditions: time 16-18 hrs
Staphylococcus aureus [13] = assay: Bactericidal activity against methicillin-resistant Staphylococcus aureus ATCC 4330 assessed as reduction in bacterial counts at 2X MIC within 0.5 hrs by time-kill kinetic assay; assay type: functional
Staphylococcus aureus [14] = assay: Bactericidal activity against methicillin-resistant Staphylococcus aureus ATCC 4330 assessed as reduction in bacterial counts at 1 to 4X MIC within 24 hrs by time-kill kinetic assay; assay type: functional
[15] = Toxicity in female ICR peritonitis mouse model infected with methicillin-resistant Staphylococcus aureus ATCC 4330 assessed as kidney damage at 10 mg/kg, ip; assay type: organism-based; conditions: in vivo
[16] = Cytotoxicity against mouse RAW264.7 cells assessed as cell survival at 12.5 ug/ml incubated for 24 hrs by CCK-8 assay; assay type: toxicity, cell-based; conditions: at 12.5 µg/mL, read-out: Activity
Staphylococcus aureus [17] = assay: Induction of membrane morphological changes in methicillin-resistant Staphylococcus aureus ATCC 4330 assessed as fluorescent intensity at 1 to 4X MIC measured after 30 to 120 mins by propidium iodide staining based flow cytometry assay; assay type: functional; conditions: time 30-120 min
Staphylococcus aureus [18] = assay: Antibiofilm activity against methicillin-resistant Staphylococcus aureus ATCC 4330 assessed as fold change in upregulation of AgrA mRNA expression at 4X MIC after 2 hrs by qRT-PCR assay; assay type: functional
Staphylococcus aureus [19] = assay: Antibiofilm activity against methicillin-resistant Staphylococcus aureus ATCC 4330 assessed as inhibition of biofilm formation at 1.56 ug/ml after 24 hrs by crystal violet staining based assay relative to control; assay type: functional
[20] = Toxicity in female ICR peritonitis mouse model infected with methicillin-resistant Staphylococcus aureus ATCC 4330 assessed as lung damage at 10 mg/kg, ip; assay type: organism-based; conditions: in vivo
Staphylococcus aureus [21] = assay: Antimicrobial activity against methicillin-resistant Staphylococcus aureus ATCC 4330 infected in female ICR peritonitis mouse model assessed as survival time of mouse at 10 mg/kg, ip; assay type: functional
Staphylococcus aureus [22] = assay: Antimicrobial activity against methicillin-resistant Staphylococcus aureus ATCC 4330 infected in female ICR peritonitis mouse model assessed as increase in survival rate of mouse at 10 mg/kg, ip; assay type: functional
[23] = Cytotoxicity against mouse RAW264.7 cells assessed as cell survival at 25 ug/ml incubated for 24 hrs by CCK-8 assay; assay type: toxicity, cell-based; conditions: at 25 µg/mL, read-out: Activity
[24] = Toxicity in female ICR peritonitis mouse model infected with methicillin-resistant Staphylococcus aureus ATCC 4330 assessed as liver damage at 10 mg/kg, ip; assay type: organism-based; conditions: in vivo
[25] = Hemolytic activity in mouse erythrocytes assessed as hemolysis at 12.5 ug/ml relative to control; assay type: toxicity, cell-based, Erythrocyte; conditions: at 12.5 µg/mL, read-out: Activity
[26] = Cytotoxicity against mouse RAW264.7 cells assessed as cell survival at 50 ug/ml incubated for 24 hrs by CCK-8 assay; assay type: toxicity, cell-based; conditions: at 50 µg/mL, read-out: Activity
Staphylococcus aureus [27] = assay: Antibiofilm activity against methicillin-resistant Staphylococcus aureus ATCC 4330 assessed as fold change in downregulation of AgrA mRNA expression at 4X MIC after 2 hrs by qRT-PCR assay; assay type: functional
Staphylococcus aureus [28] = assay: Antibiofilm activity against methicillin-resistant Staphylococcus aureus ATCC 4330 assessed as inhibition of biofilm formation at 50 ug/ml after 24 hrs by crystal violet staining based assay relative to control; assay type: functional

O=C1c2ccccc2-[n+]2ccc3c([nH]c4ccccc43)c21
Activity (Staphylococcus aureus [1]): 1.11% | Activity (Staphylococcus aureus [2]): Active | Activity (Staphylococcus aureus [3]): Active | Activity (Staphylococcus aureus [4]): Active | Activity (Staphylococcus aureus [5]): Active | Activity (Staphylococcus aureus [6]): Active | Activity (DNA [7]): Active | Activity (Staphylococcus aureus [8]): Active | inhibition of DNA migration (DNA [9]): Active | Activity (Staphylococcus aureus [10]): Active | Activity (Staphylococcus aureus [11]): Active

CCCCNC(=O)c1ccc2[nH]c3c(C(=O)c4ccccc4Br)nccc3c2c1
MIC (Staphylococcus aureus [12]): > 200 µg/mL

CCCCNC(=O)c1ccc2[nH]c3c4[n+](ccc3c2c1)-c1ccccc1C4=O.[Br-]
Activity (Staphylococcus aureus [13]): 0.5 log10CFU/ml | MIC (Staphylococcus aureus [12]): 6.25 µg/mL | Activity (Staphylococcus aureus [6]): Active | Activity (Staphylococcus aureus [8]): Active | Activity (Staphylococcus aureus [14]): 2 log10CFU/ml

O=C1c2ccccc2-[n+]2ccc3c([nH]c4ccc(Br)cc43)c21.[Br-]
Activity [15]: Non-Toxic | viability at 24 h, 12.5 ug/ml [16]: 72.3% | Activity (Staphylococcus aureus [17]): 19.3% | Activity (Staphylococcus aureus [2]): Active | Activity (Staphylococcus aureus [3]): Active | Activity (Staphylococcus aureus [13]): 2.4 log10CFU/ml | MIC (Staphylococcus aureus [12]): 0.098 µg/mL | Activity (Staphylococcus aureus [4]): Active | fold change (FC) (Staphylococcus aureus [18]): 2.12 | Activity (Staphylococcus aureus [5]): Active | inhibition at 1.56 µg/mL (Staphylococcus aureus [19]): 74.9% | Activity [20]: Non-Toxic | Survival (Staphylococcus aureus [21]): 2 days | Activity (Staphylococcus aureus [22]): 20% | Activity (Staphylococcus aureus [6]): Active | viability at 24 h, 25 ug/ml [23]: 86.5% | Activity (DNA [7]): Active | Activity (Staphylococcus aureus [8]): Active | Activity (Staphylococcus aureus [14]): 2 log10CFU/ml | Activity [24]: Non-Toxic | inhibition of DNA migration (DNA [9]): Active | hemolysis at 12.5 ug/ml [25]: 0% | viability at 24 h, 50 ug/ml [26]: 92.9% | Activity (Staphylococcus aureus [10]): Active | Activity (Staphylococcus aureus [11]): Active

NC(=O)c1ccc2[nH]c3c(C(=O)c4ccccc4Br)nccc3c2c1
MIC (Staphylococcus aureus [12]): > 200 µg/mL

NC(=O)c1ccc2[nH]c3c4[n+](ccc3c2c1)-c1ccccc1C4=O.[Br-]
MIC (Staphylococcus aureus [12]): 200 µg/mL

CN[C@H](CC(C)C)C(=O)N[C@H]1C(=O)N[C@@H](CC(N)=O)C(=O)N[C@H]2C(=O)N[C@H]3C(=O)N[C@H](C(=O)N[C@H](C(=O)O)c4cc(O)cc(O)c4-c4cc3ccc4O)[C@H](O)c3ccc(c(Cl)c3)Oc3cc2cc(c3O[C@@H]2O[C@H](CO)[C@@H](O)[C@H](O)[C@H]2O[C@H]2C[C@](C)(N)[C@H](O)[C@H](C)O2)Oc2ccc(cc2Cl)[C@H]1O [VANCOMYCIN]
Activity (Staphylococcus aureus [13]): 0.1 log10CFU/ml | Activity (Staphylococcus aureus [6]): Active | Activity (Staphylococcus aureus [14]): 2 log10CFU/ml

O=C(c1ccccc1Br)c1nccc2c1[nH]c1ccccc12
MIC (Staphylococcus aureus [12]): > 200 µg/mL

O=C(O)c1ccc2[nH]c3c(C(=O)c4ccccc4Br)nccc3c2c1
MIC (Staphylococcus aureus [12]): > 200 µg/mL

O=C(Nc1cccc2ccccc12)c1ccc2[nH]c3c4[n+](ccc3c2c1)-c1ccccc1C4=O.[Br-]
Activity [15]: Non-Toxic | Activity (Staphylococcus aureus [17]): 19.3% | Activity (Staphylococcus aureus [2]): Active | Activity (Staphylococcus aureus [3]): Active | Activity (Staphylococcus aureus [13]): 1.9 log10CFU/ml | MIC (Staphylococcus aureus [12]): 0.098 µg/mL | Activity (Staphylococcus aureus [4]): Active | Activity (Staphylococcus aureus [5]): Active | inhibition at 1.56 µg/mL (Staphylococcus aureus [19]): 78.9% | Activity [20]: Non-Toxic | Survival (Staphylococcus aureus [21]): 2 days | Activity (Staphylococcus aureus [22]): 20% | Activity (Staphylococcus aureus [6]): Active | Activity (DNA [7]): Active | Activity (Staphylococcus aureus [8]): Active | Activity (Staphylococcus aureus [14]): 2 log10CFU/ml | Activity [24]: Non-Toxic | inhibition of DNA migration (DNA [9]): Active | hemolysis at 12.5 ug/ml [25]: 0% | viability at 24 h, 50 ug/ml [26]: 98.4% | Activity (Staphylococcus aureus [10]): Active | fold change (FC) (Staphylococcus aureus [27]): 0.1 | Activity (Staphylococcus aureus [11]): Active

O=C(O)c1ccc2[nH]c3c4[n+](ccc3c2c1)-c1ccccc1C4=O.[Br-]
Activity (Staphylococcus aureus [13]): 0 log10CFU/ml | MIC (Staphylococcus aureus [12]): 6.25 µg/mL | Activity (Staphylococcus aureus [6]): Active | Activity (Staphylococcus aureus [14]): 2 log10CFU/ml

Cc1ccc2[nH]c3c4[n+](ccc3c2c1)-c1ccccc1C4=O
Activity (Staphylococcus aureus [1]): 1.11% | Activity (Staphylococcus aureus [2]): Active | Activity (Staphylococcus aureus [3]): Active | Activity (Staphylococcus aureus [4]): Active | Activity (Staphylococcus aureus [6]): Active | Activity (DNA [7]): Active | Activity (Staphylococcus aureus [8]): Active | inhibition of DNA migration (DNA [9]): Active | Activity (Staphylococcus aureus [10]): Active | Activity (Staphylococcus aureus [11]): Active

Cc1ccc2[nH]c3c(C(=O)c4ccccc4Br)nccc3c2c1
MIC (Staphylococcus aureus [12]): > 200 µg/mL

Cc1ccc2[nH]c3c(C(=O)c4ccccc4Cl)nccc3c2c1
MIC (Staphylococcus aureus [12]): > 200 µg/mL

O=C1c2ccccc2-[n+]2ccc3c([nH]c4ccccc43)c21.[Br-]
Activity [15]: Non-Toxic | viability at 24 h, 12.5 ug/ml [16]: 91.7% | Activity (Staphylococcus aureus [13]): 0 log10CFU/ml | MIC (Staphylococcus aureus [12]): 0.39 µg/mL | fold change (FC) (Staphylococcus aureus [18]): 1.67 | Activity [20]: Non-Toxic | Survival (Staphylococcus aureus [21]): 2 days | Activity (Staphylococcus aureus [22]): 20% | viability at 24 h, 25 ug/ml [23]: 100% | inhibition at 50 µg/mL (Staphylococcus aureus [28]): 27.4% | Activity (Staphylococcus aureus [14]): 2 log10CFU/ml | Activity [24]: Non-Toxic | hemolysis at 12.5 ug/ml [25]: 0% | viability at 24 h, 50 ug/ml [26]: 100%

O=C(c1ccccc1Br)c1nccc2c1[nH]c1ccc(Br)cc12
MIC (Staphylococcus aureus [12]): > 200 µg/mL

O=C(c1ccccc1Cl)c1nccc2c1[nH]c1ccccc12
MIC (Staphylococcus aureus [12]): > 200 µg/mL

O=C(Nc1cccc2ccccc12)c1ccc2[nH]c3c(C(=O)c4ccccc4Br)nccc3c2c1
MIC (Staphylococcus aureus [12]): > 200 µg/mL

Cc1ccc2[nH]c3c4[n+](ccc3c2c1)-c1ccccc1C4=O.[Cl-]
Activity (Staphylococcus aureus [13]): 0.1 log10CFU/ml | MIC (Staphylococcus aureus [12]): 0.78 µg/mL | Activity (Staphylococcus aureus [14]): 2 log10CFU/ml
